From ChEMBL document CHEMBL1137791, “Cell division cycle 7 kinase inhibitors: 1H-pyrrolo[2,3-b]pyridines, synthesis and structure-activity relationships” (J Med Chem, 2009)

Tests used:
[1] = target: Cell division cycle 7-related protein kinase (Homo sapiens, UniProt O00311); assay: Inhibition of Cdc7-mediated phosphorylation of Mcm2
A2780 = assay: Antiproliferative activity against human A2780 cells after 72 hrs by firefly luciferase assay; format: functional, cell-based; conditions: A2780, 72 h
CDK9/cyclin T1 = CDK9/cyclin T1 (Homo sapiens, UniProt P50750); assay: Inhibition of Cdk9/cyclinT; format: protein-complex assay
CDK9/cyclin T1, sequence (O60563 whole entry): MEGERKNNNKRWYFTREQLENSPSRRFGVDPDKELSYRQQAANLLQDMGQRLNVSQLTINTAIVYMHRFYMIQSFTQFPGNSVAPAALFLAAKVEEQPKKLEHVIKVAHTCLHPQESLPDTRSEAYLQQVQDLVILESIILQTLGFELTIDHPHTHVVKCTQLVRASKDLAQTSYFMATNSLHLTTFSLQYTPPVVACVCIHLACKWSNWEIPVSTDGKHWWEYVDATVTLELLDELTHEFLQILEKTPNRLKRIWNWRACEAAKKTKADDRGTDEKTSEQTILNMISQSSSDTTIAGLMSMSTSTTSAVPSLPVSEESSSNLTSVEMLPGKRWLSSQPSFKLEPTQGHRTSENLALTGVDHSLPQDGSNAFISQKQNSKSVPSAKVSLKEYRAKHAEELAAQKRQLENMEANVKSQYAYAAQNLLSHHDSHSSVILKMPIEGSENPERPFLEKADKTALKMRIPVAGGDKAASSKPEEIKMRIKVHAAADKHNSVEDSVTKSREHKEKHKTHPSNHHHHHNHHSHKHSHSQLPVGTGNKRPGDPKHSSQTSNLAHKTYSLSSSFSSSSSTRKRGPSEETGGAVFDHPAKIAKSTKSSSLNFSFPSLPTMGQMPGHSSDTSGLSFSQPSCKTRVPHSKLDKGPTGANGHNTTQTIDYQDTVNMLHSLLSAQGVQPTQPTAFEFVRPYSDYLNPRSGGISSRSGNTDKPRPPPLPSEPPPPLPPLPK
CDK9/cyclin T1, sequence (P50750 whole entry): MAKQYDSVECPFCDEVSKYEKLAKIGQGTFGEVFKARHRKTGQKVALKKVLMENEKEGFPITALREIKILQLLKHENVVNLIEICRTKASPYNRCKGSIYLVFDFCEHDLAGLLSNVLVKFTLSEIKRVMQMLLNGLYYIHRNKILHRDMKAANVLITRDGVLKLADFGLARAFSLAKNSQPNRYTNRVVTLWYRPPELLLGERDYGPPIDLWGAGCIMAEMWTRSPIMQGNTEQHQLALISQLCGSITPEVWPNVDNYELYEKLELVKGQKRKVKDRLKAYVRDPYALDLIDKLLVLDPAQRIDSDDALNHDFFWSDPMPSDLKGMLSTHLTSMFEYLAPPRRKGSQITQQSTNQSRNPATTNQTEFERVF

[2] = target: Cyclin-dependent kinase 2 (Homo sapiens, UniProt P24941); assay: Inhibition of Cdk2/cyclinA
[3] = target: cAMP-dependent protein kinase catalytic subunit alpha (Homo sapiens, UniProt P17612); assay: Inhibition of PKAalpha

Cell division cycle 7-related protein kinase, sequence (O00311 whole entry): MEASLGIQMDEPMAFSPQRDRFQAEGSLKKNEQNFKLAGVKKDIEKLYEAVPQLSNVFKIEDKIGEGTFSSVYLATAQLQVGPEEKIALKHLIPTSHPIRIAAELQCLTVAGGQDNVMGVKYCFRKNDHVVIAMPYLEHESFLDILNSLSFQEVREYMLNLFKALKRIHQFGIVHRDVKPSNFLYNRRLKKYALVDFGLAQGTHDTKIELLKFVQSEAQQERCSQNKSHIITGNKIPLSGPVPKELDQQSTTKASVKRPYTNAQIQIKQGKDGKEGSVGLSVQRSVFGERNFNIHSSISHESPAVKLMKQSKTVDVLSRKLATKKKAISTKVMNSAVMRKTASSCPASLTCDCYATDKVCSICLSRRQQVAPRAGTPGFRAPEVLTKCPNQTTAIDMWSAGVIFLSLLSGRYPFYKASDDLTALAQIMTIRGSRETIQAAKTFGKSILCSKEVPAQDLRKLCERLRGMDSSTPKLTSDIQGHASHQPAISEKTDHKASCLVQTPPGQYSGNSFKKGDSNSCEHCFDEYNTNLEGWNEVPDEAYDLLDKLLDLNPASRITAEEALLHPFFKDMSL

Row | Compound | IC50 [1] | also measured
1 | O=C1NC(NCc2cccs2)=N/C1=C\c1c[nH]c2ncccc12 | 18 nM | –
2 | C[C@H](NC1=N/C(=C\c2c[nH]c3ncccc23)C(=O)N1)c1ccccc1 | 21 nM | IC50 (A2780): 380 nM
3 | O=C1NC(c2cccnc2)=N/C1=C\c1c[nH]c2ncccc12 | 60 nM | –
4 | O=C1N=C(NCc2ccco2)S/C1=C\c1c[nH]c2ncccc12 | 4 nM | IC50 (A2780): 1200 nM
5 | CC(C)(C)CCNC1=N/C(=C\c2c[nH]c3ncccc23)C(=O)N1 | 24 nM | –
6 | O=C1NC(NCCO)=N/C1=C\c1c[nH]c2ncccc12 | 37 nM | –
7 | O=C1N=C(NCc2ccccc2)S/C1=C\c1c[nH]c2ncccc12 | 9 nM | IC50 (CDK9/cyclin T1): 15 nM; IC50 [2]: < 50 nM; IC50 [3]: < 50 nM; IC50 (A2780): 320 nM
8 | CC(C)NC1=NC(=O)/C(=C/c2c[nH]c3ncccc23)S1 | 10 nM | IC50 (A2780): 1000 nM
9 | C/C(=C1/N=C(NCc2ccccc2)NC1=O)c1c[nH]c2ncccc12 | > 10000 nM | –
10 | O=C1NC(NCc2ccccc2)=N/C1=C/c1c[nH]c2ncc([N+](=O)[O-])cc12 | > 10000 nM | –
11 | Cc1ccc(C2=N/C(=C\c3c[nH]c4ncccc34)C(=O)N2)cc1 | 47 nM | –
12 | O=C1NC(N2CCCCC2)=N/C1=C\c1c[nH]c2ncccc12 | 25 nM | –
13 | O=C1NC(N2CCOCC2)=N/C1=C\c1c[nH]c2ncccc12 | 47 nM | –
14 | CC1CCN(C2=N/C(=C\c3c[nH]c4ncccc34)C(=O)N2)CC1 | 105 nM | –
15 | O=C1NC(c2ccccc2)=N/C1=C\c1c[nH]c2ccccc12 | > 10000 nM | –
16 | Cc1ccc(CNC2=N/C(=C\c3c[nH]c4ncccc34)C(=O)N2)cc1 | 162 nM | –
17 | O=C1NC(NCc2ccc(Cl)cc2)=N/C1=C\c1c[nH]c2ncccc12 | 86 nM | –
18 | O=C1NC(NCC2CCCCC2)=N/C1=C\c1c[nH]c2ncccc12 | 64 nM | –
19 | O=C1NC(NCC23CC4CC(CC(C4)C2)C3)=N/C1=C\c1c[nH]c2ncccc12 | 128 nM | –
20 | CCNC1=N/C(=C\c2c[nH]c3ncccc23)C(=O)N1 | 45 nM | –
21 | CC(C)NC1=N/C(=C\c2c[nH]c3ncccc23)C(=O)N1 | 13 nM | IC50 (A2780): 8800 nM
22 | O=C1NC(SCc2ccccc2)=N/C1=C\c1c[nH]c2ncccc12 | – | IC50 (CDK9/cyclin T1): 6100 nM

Row | Compound | IC50 [1] | also measured
23 | O=C1NC(NCc2ccccc2)=N/C1=C\c1c[nH]c2ncc([N+](=O)[O-])cc12 | 130 nM | –
24 | Nc1cnc2[nH]cc(/C=C3\N=C(NCc4ccccc4)NC3=O)c2c1 | 238 nM | –
25 | O=C1NC(NC2CCCCC2)=N/C1=C\c1c[nH]c2ncccc12 | 21 nM | –
26 | O=C1NC(NCc2cccc(Br)c2)=N/C1=C\c1c[nH]c2ncccc12 | 55 nM | –
27 | O=C1NC(NCc2ccc(Br)cc2)=N/C1=C\c1c[nH]c2ncccc12 | 127 nM | –
28 | O=C1NC(NCC2CCCO2)=N/C1=C\c1c[nH]c2ncccc12 (stereo not given) | 21 nM | –
29 | CC1CCC(NC2=N/C(=C\c3c[nH]c4ncccc34)C(=O)N2)CC1 (stereo not given) | 13 nM | –
30 | CC(C)(C)C1CCC(NC2=N/C(=C\c3c[nH]c4ncccc34)C(=O)N2)CC1 (stereo not given) | 207 nM | –
31 | Cc1cccc(CNC2=N/C(=C\c3c[nH]c4ncccc34)C(=O)N2)c1 | 50 nM | –
32 | CCCCCCCNC1=N/C(=C\c2c[nH]c3ncccc23)C(=O)N1 | 247 nM | –
33 | C[C@H](NC1=NC(=O)/C(=C/c2c[nH]c3ncccc23)S1)c1ccccc1 | 26 nM | IC50 (A2780): 42 nM
34 | CC1CN(C2=N/C(=C\c3c[nH]c4ncccc34)C(=O)N2)CCO1 (stereo not given) | 66 nM | –
35 | Cc1cccc(C2=N/C(=C\c3c[nH]c4ncccc34)C(=O)N2)c1 | 30 nM | –
36 | CCCCCNC1=N/C(=C\c2c[nH]c3ncccc23)C(=O)N1 | 35 nM | –
37 | O=C1NC(c2ccccc2)=N/C1=C\c1c[nH]c2ncccc12 | 50 nM | –
38 | O=C1NC(NC2CC2)=N/C1=C\c1c[nH]c2ncccc12 | 33 nM | –
39 | O=C1NC(NCc2ccccc2)=N/C1=C\c1c[nH]c2ncccc12 | 20 nM | IC50 (CDK9/cyclin T1): 95 nM; IC50 (A2780): 1200 nM
40 | CC(=O)Nc1cnc2[nH]cc(/C=C3\N=C(NCc4ccccc4)NC3=O)c2c1 | 116 nM | –
41 | O=C1NC(NCc2ccco2)=N/C1=C\c1c[nH]c2ncccc12 | 15 nM | IC50 (A2780): 4000 nM
42 | O=C1NC(NCc2cccc(Cl)c2)=N/C1=C\c1c[nH]c2ncccc12 | 39 nM | –
43 | O=C1NC(NCCc2ccccc2)=N/C1=C\c1c[nH]c2ncccc12 | 18 nM | –
